In patent publication US20240270762A1, “PENICILLIN-BINDING PROTEIN INHIBITORS” (priority 2021, published 2024):
≈ marks a conversion by molar mass, not a printed value. Read-outs that look alike come from different tables or passages of the source.

Legend:
[1] = tested on: N. gonorrhoeae MS11; assay: Liquid broth MIC in Fastidious broth; conditions: Neisseria gonorrhoeae
[2] = tested on: N. gonorrhoeae CDC-0197; assay: Liquid broth MIC in Fastidious broth; conditions: Neisseria gonorrhoeae
[3] = tested on: N. gonorrhoeae WHO X; assay: Liquid broth MIC in Fastidious broth; conditions: Neisseria gonorrhoeae
[4] = tested on: N. gonorrhoeae FA1090; assay: Liquid broth MIC in Fastidious broth; conditions: Neisseria gonorrhoeae
[5] = tested on: N. gonorrhoeae WHO K; assay: Liquid broth MIC in Fastidious broth; conditions: Neisseria gonorrhoeae
[6] = tested on: N. gonorrhoeae WHO L; assay: Liquid broth MIC in Fastidious broth; conditions: Neisseria gonorrhoeae
Description: Liquid broth-based assays were used for antibacterial testing of PBP inhibitors in Neisseria gonorrhoeae. Briefly, cryo-preserved bacterial cultures of clinical strains were streaked for isolation on Chocolate Agar (72 g/L (2×) GC Agar Base (BD #228950) and 2% (2×) Hemoglobin was autoclaved at 121° C. for 20 minutes to sterilize. Once cooled to ˜50° C. the 2×GC Agar Base and 2× Hemoglobin solutions are combined and 1% IsoVitaleX Enrichment (BD #211876) was added to the solution). Strains were incubated at 36° C. and 5% CO2 to allow growth of colonies, 24 hours before inoculum preparation. 2-fold serial dilutions of test compounds were conducted in a 96 well plate with a final volume of 75 μL per well at 2-fold the final desired concentration in Fastidious broth (Remel #R07664). For preparation of assay inoculum, a direct suspension was prepared by aseptically swabbing 10-15 colonies from agar plates into culture tubes containing 2 mL of fresh sterile saline. After the dilution plates were set up, direct suspensions were then diluted in a cuvette containing sterile saline and the optical density was measured at 600 nm. Inocula were diluted such that 75 μL of this culture in Fastidious broth results in a starting bacterial concentration of 5×10^5 CFU/mL when added to the dilution plates. The plates were incubated for ˜24 hours at 36° C. and 5% CO2.

[7] = tested on: N. gonorrhoeae WHO G; assay: Liquid broth MIC in Fastidious broth; conditions: Neisseria gonorrhoeae
[8] = tested on: P. aeruginosa ATCC 35151; assay: microbe, parasite or virus in culture; assay type: cell-based; conditions: Pseudomonas aeruginosa, ATCC35151, read-out: Minimum inhibitory concentration, P. aeruginosa ATCC 35151
[9] = tested on: B. humptydooensis ATCC BAA-2767; assay: microbe, parasite or virus in culture; assay type: cell-based; conditions: Burkholderia humptydooensis, ATCCBAA2767, read-out: Minimum inhibitory concentration (MIC), B. humptydooensis ATCC BAA-2767
[10] = tested on: P. aeruginosa CDC-0095; assay: microbe, parasite or virus in culture; assay type: cell-based; conditions: Pseudomonas aeruginosa, CDC0095, read-out: Minimum inhibitory concentration, P. aeruginosa CDC-0095
[11] = tested on: A. baumannii CDC-0033; assay: microbe, parasite or virus in culture; assay type: cell-based; conditions: Acinetobacter baumannii, CDC0033, read-out: MIC, A. baumannii CDC-0033
[12] = tested on: P. aeruginosa ATCC 27853; assay: microbe, parasite or virus in culture; assay type: cell-based; conditions: Pseudomonas aeruginosa, ATCC27853, read-out: Minimum inhibitory concentration, P. aeruginosa ATCC 27853
[13] = MS11, read-out: Minimum Inhibitory Concentration (MIC), N. gonorrhoeae MS11
[14] = CDC0197, read-out: Minimum Inhibitory Concentration (MIC), N. gonorrhoeae CDC-0197
[15] = read-out: Minimum Inhibitory Concentration (MIC), N. gonorrhoeae WHO X
[16] = FA1090, read-out: Minimum Inhibitory Concentration (MIC), N. gonorrhoeae FA 1090
[17] = read-out: Minimum Inhibitory Concentration (MIC), N. gonorrhoeae WHO K
[18] = read-out: Minimum Inhibitory Concentration (MIC), N. gonorrhoeae WHO L
[19] = read-out: Minimum Inhibitory Concentration (MIC), N. gonorrhoeae WHO G

| Compound | MIC [1, 13] [µg/mL] | MIC [2, 14] [µg/mL] | MIC [3, 15] [µg/mL] | MIC [4, 16] [µg/mL] | MIC [5, 17] [µg/mL] | MIC [6, 18] [µg/mL] | MIC [7, 19] [µg/mL] | MIC [8] [µg/mL] | MIC [9] [µg/mL] | MIC [10] [µg/mL] | MIC [11] [µg/mL] | MIC [12] [µg/mL] | MIC ([1]; MS11, read-out: Minimum Inhibitory Concentration, MS11) [µg/mL] | MIC ([2]; CDC0197, read-out: Minimum Inhibitory Concentration, CDC-0197) [µg/mL] | MIC ([3]; read-out: Minimum Inhibitory Concentration, WHO X) [µg/mL] | MIC ([4]; FA1090, read-out: Minimum Inhibitory Concentration, FA 1090) [µg/mL] | MIC ([5]; read-out: Minimum Inhibitory Concentration, WHO K) [µg/mL] | MIC ([6]; read-out: Minimum Inhibitory Concentration, WHO L) [µg/mL] | MIC ([7]; read-out: Minimum Inhibitory Concentration, WHO G) [µg/mL] |
| --- | --- | --- | --- | --- | --- | --- | --- | --- | --- | --- | --- | --- | --- | --- | --- | --- | --- | --- | --- |
| CS(=O)(=O)N1CCN(C(=O)N[C@H](C(=O)N[C@H]2Cc3cccc(C(=O)O)c3OB2O)c2ccc(P(=O)(O)O)cc2)C1=O (single isomer, unassigned) [Example 5] | < 1 | < 1 | 4 to 8 (≈ 6.55 to 13.1 µM) | < 1 | 1 to 2 (≈ 1.64 to 3.28 µM) | 4 to 8 (≈ 6.55 to 13.1 µM) | < 1 | – | – | – | – | – | – | – | – | – | – | – | – |
| CS(=O)(=O)N1CCN(C(=O)N[C@@H](C(=O)N[C@H]2Cc3cccc(C(=O)O)c3OB2O)c2ccc(P(=O)(O)O)cc2)C1=O (single isomer, unassigned) [Example 6] | < 1 | < 1 | < 1 | < 1 | < 1 | < 1 | < 1 | 2 to 4 (≈ 3.28 to 6.55 µM) | 2 to 4 (≈ 3.28 to 6.55 µM) | > 128 | 32 to 64 (≈ 52.4 to 105 µM) | 32 to 64 (≈ 52.4 to 105 µM) | – | – | – | – | – | – | – |
| CCN1CCN(C(=O)NC(C(=O)N[C@H]2Cc3cccc(C(=O)O)c3OB2O)c2ccc(P(=O)(O)O)cc2F)C(=O)C1=O (stereo partly drawn) [Example 1, (3R)-3-(2-(4-ethyl-2,3-dioxopiperazine-1-carboxamido)-2-(2-fluoro-4-phosphonophenyl)acetamido)-2-hydroxy-3,4-dihydro-2H-benzo[e][1,2]oxaborinine-8-carboxylic acid] | < 1 | < 1 | 1 to 2 (≈ 1.65 to 3.3 µM) | < 1 | < 1 | 1 to 2 (≈ 1.65 to 3.3 µM) | < 1 | – | – | – | – | – | – | – | – | – | – | – | – |
| CCN1CCN(C(=O)NC(C(=O)N[C@H]2Cc3cccc(C(=O)O)c3OB2O)c2cc(P(=O)(O)O)ccc2F)C(=O)C1=O (stereo partly drawn) [Example 2, (3R)-3-(2-(4-ethyl-2,3-dioxopiperazine-1-carboxamido)-2-(2-fluoro-5-phosphonophenyl)acetamido)-2-hydroxy-3,4-dihydro-2H-benzo[e][1,2]oxaborinine-8-carboxylic acid] | 4 to 8 (≈ 6.6 to 13.2 µM) | 4 to 8 (≈ 6.6 to 13.2 µM) | 16 to 32 (≈ 26.4 to 52.8 µM) | < 1 | 16 to 32 (≈ 26.4 to 52.8 µM) | > 64 | 1 to 2 (≈ 1.65 to 3.3 µM) | – | – | – | – | – | – | – | – | – | – | – | – |
| NCCN1CCN(C(=O)NC(C(=O)N[C@H]2Cc3cccc(C(=O)O)c3OB2O)c2ccc(P(=O)(O)O)cc2)C(=O)C1=O (stereo partly drawn) [Example 3, (3R)-3-(2-(4-(2-aminoethyl)-2,3-dioxopiperazine-1-carboxamido)-2-(4-phosphonophenyl)acetamido)-2-hydroxy-3,4-dihydro-2H-benzo[e][1,2]oxaborinine-8-carboxylic acid] | 1 to 2 (≈ 1.66 to 3.32 µM) | 1 to 2 (≈ 1.66 to 3.32 µM) | 4 to 8 (≈ 6.63 to 13.3 µM) | < 1 | 4 to 8 (≈ 6.63 to 13.3 µM) | 4 to 8 (≈ 6.63 to 13.3 µM) | < 1 | – | – | – | – | – | – | – | – | – | – | – | – |
| O=C(O)c1cccc2c1OB(O)[C@@H](NC(=O)C(NC(=O)N1CCN(CC(F)(F)F)C(=O)C1=O)c1ccc(P(=O)(O)O)cc1)C2 (stereo partly drawn) [Example 4, (3R)-3-(2-(2,3-dioxo-4-(2,2,2-trifluoroethyl)piperazine-1-carboxamido)-2-(4-phosphonophenyl)acetamido)-2-hydroxy-3,4-dihydro-2H-benzo[e][1,2]oxaborinine-8-carboxylic acid] | < 1 | 1 to 2 (≈ 1.56 to 3.11 µM) | 4 to 8 (≈ 6.23 to 12.5 µM) | < 1 | 1 to 2 (≈ 1.56 to 3.11 µM) | 4 to 8 (≈ 6.23 to 12.5 µM) | < 1 | – | – | – | – | – | – | – | – | – | – | – | – |
| O=C(NCCCS(=O)(=O)N1CCN(C(=O)NC(C(=O)N[C@H]2Cc3ccc(F)c(C(=O)O)c3OB2O)c2cc(F)c(O)c(O)c2Cl)C1=O)Nc1cccc(O)c1 (stereo partly drawn) [Example 277, (3R)-3-(2-(2-chloro-5-fluoro-3,4-dihydroxyphenyl)-2-(3-((3-(3-(3-hydroxyphenyl)ureido)propyl)sulfonyl)-2-oxoimidazolidine-1-carboxamido)acetamido)-7-fluoro-2-hydroxy-3,4-dihydro-2H-benzo[e][1,2]oxaborinine-8-carboxylic acid] | – | – | – | – | – | – | – | < 1 | > 128 | 8 to 16 (≈ 9.87 to 19.7 µM) | 2 to 4 (≈ 2.47 to 4.93 µM) | 2 to 4 (≈ 2.47 to 4.93 µM) | 16 to 32 (≈ 19.7 to 39.5 µM) | 16 to 32 (≈ 19.7 to 39.5 µM) | > 64 | 1 to 2 (≈ 1.23 to 2.47 µM) | > 64 | > 64 | 16 to 32 (≈ 19.7 to 39.5 µM) |
| O=C(O)c1c(F)ccc2c1OB(O)[C@@H](NC(=O)C(NC(=O)N1CCN(CC3CCN(C(=O)c4cccc(O)c4)CC3)C(=O)C1=O)c1cc(F)c(O)c(O)c1Cl)C2 (stereo partly drawn) [Example 475, (3R)-3-(2-(2-chloro-5-fluoro-3,4-dihydroxyphenyl)-2-(4-((1-(3-hydroxybenzoyl)piperidin-4-yl)methyl)-2,3-dioxopiperazine-1-carboxamido)acetamido)-7-fluoro-2-hydroxy-3,4-dihydro-2H-benzo[e][1,2]oxaborinine-8-carboxylic acid] | – | – | – | – | – | – | – | < 1 | 2 to 4 (≈ 2.5 to 5 µM) | < 1 | 2 to 4 (≈ 2.5 to 5 µM) | 2 to 4 (≈ 2.5 to 5 µM) | – | – | – | – | – | – | – |
| O=C(O)c1c(F)ccc2c1OB(O)[C@@H](NC(=O)C(NC(=O)N1CCN(C3CCN(C(=O)c4ccc(O)cc4O)CC3)C(=O)C1=O)c1cc(F)c(O)c(O)c1Cl)C2 (stereo partly drawn) [Example 476, (3R)-3-(2-(2-chloro-5-fluoro-3,4-dihydroxyphenyl)-2-(4-(1-(2,4-dihydroxybenzoyl)piperidin-4-yl)-2,3-dioxopiperazine-1-carboxamido)acetamido)-7-fluoro-2-hydroxy-3,4-dihydro-2H-benzo[e][1,2]oxaborinine-8-carboxylic acid] | – | – | – | – | – | – | – | < 1 | < 1 | < 1 | < 1 | < 1 | – | – | – | – | – | – | – |
| O=C(O)c1c(F)ccc2c1OB(O)[C@@H](NC(=O)C(NC(=O)N1CCN(CC3CCN(C(=O)Nc4cccc(O)c4)CC3)C(=O)C1=O)c1cc(F)c(O)c(O)c1Cl)C2 (stereo partly drawn) [Example 477, (3R)-3-(2-(2-chloro-5-fluoro-3,4-dihydroxyphenyl)-2-(4-((1-((3-hydroxyphenyl)carbamoyl)piperidin-4-yl)methyl)-2,3-dioxopiperazine-1-carboxamido)acetamido)-7-fluoro-2-hydroxy-3,4-dihydro-2H-benzo[e][1,2]oxaborinine-8-carboxylic acid] | – | – | – | – | – | – | – | < 1 | < 1 | < 1 | 2 to 4 (≈ 2.45 to 4.91 µM) | < 1 | – | – | – | – | – | – | – |
| O=C(O)c1c(F)ccc2c1OB(O)[C@@H](NC(=O)C(NC(=O)N1CCN(C3CCN(C(=O)Nc4cccc(O)c4F)CC3)C(=O)C1=O)c1cc(F)c(O)c(O)c1Cl)C2 (stereo partly drawn) [Example 478, (3R)-3-(2-(2-chloro-5-fluoro-3,4-dihydroxyphenyl)-2-(4-(1-((2-fluoro-3-hydroxyphenyl)carbamoyl)piperidin-4-yl)-2,3-dioxopiperazine-1-carboxamido)acetamido)-7-fluoro-2-hydroxy-3,4-dihydro-2H-benzo[e][1,2]oxaborinine-8-carboxylic acid] | – | – | – | – | – | – | – | < 1 | 8 to 16 (≈ 9.77 to 19.5 µM) | 2 to 4 (≈ 2.44 to 4.88 µM) | 8 to 16 (≈ 9.77 to 19.5 µM) | 2 to 4 (≈ 2.44 to 4.88 µM) | – | – | – | – | – | – | – |
